# Measured values: the supplement of paper PMC4862054
# “And” between values parts separate entries of the source, which are not always exact repeats. Equal entries are not always repeated.
# Tests used:
# Conditions in all cases: incubation time: 72 h
# [1] = tested on: CAL-51; test: normalised viability (% of control), CellTiter-Blue; higher = more viable cells (about 100 = DMSO control)
# Description: (§1)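 DSRT, CellTiter-Blue viability, 72 h incubation. Signal is normalised to DMSO and benzethonium chloride controls. Value is the normalised response at dose 6.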
# [2] = tested on: DU-4475; test: as above
# Description: as §1
# [3] = tested on: HDQ-P1; test: as above
# Description: as §1
# [4] = tested on: MDA-MB-453; test: as above
# Description: as §1
# [5] = tested on: CAL-85-1; test: as above
# Description: as §1
# [6] = tested on: CAL-148; test: as above
# Description: as §1
# [7] = tested on: CAL-51; test: as above; remark: listed apart in the source
# Description: (§2)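 DSRT, CellTiter-Blue viability, 72 h incubation. Signal is normalised to DMSO and benzethonium chloride controls. Value is the normalised response at dose 9.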
# [8] = tested on: DU-4475; test: as above; remark: listed apart in the source
# Description: as §2
# [9] = tested on: HDQ-P1; test: as above; remark: listed apart in the source
# Description: as §2
# [10] = tested on: MDA-MB-453; test: as above; remark: listed apart in the source
# Description: as §2
# [11] = tested on: CAL-85-1; test: as above; remark: listed apart in the source
# Description: as §2
# [12] = tested on: CAL-148; test: as above; remark: listed apart in the source
# Description: as §2
# [13] = tested on: CAL-51; test: normalised response (% of control), CellTiter-Glo; higher = more viable cells (100 = DMSO, 0 = benzethonium chloride kill control)
# Procedure, shortened: (§3)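 Compound was dispensed into 384-well plates at 5 concentrations in 10-fold steps spanning a 10,000-fold range specific to that compound. Breast cancer cell lines were added as 20 µl suspension and left for 72 h before CellTox Green fluorescence (485/520 nm) and then CellTiter-Glo luminescence, read after 10 min at room temperature. Each reported value is the normalised signal at one concentration, with 0.1 % DMSO set at 100 and a positive kill control at 0 on each plate.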
# [14] = tested on: DU-4475; test: as above
# Procedure, shortened: as §3
# [15] = tested on: HDQ-P1; test: as above
# Procedure, shortened: as §3
# [16] = tested on: Hs578T; test: as above
# Procedure, shortened: as §3
# [17] = tested on: BT-549; test: as above
# Procedure, shortened: as §3
# [18] = tested on: HCC1599; test: as above
# Procedure, shortened: as §3
# [19] = tested on: HCC1143; test: as above
# Procedure, shortened: as §3
# [20] = tested on: BT-474; test: as above
# Procedure, shortened: as §3
# [21] = tested on: CAL-120; test: as above
# Procedure, shortened: as §3
# [22] = tested on: MDA-MB-453; test: as above
# Procedure, shortened: as §3
# [23] = tested on: CAL-85-1; test: as above
# Procedure, shortened: as §3
# [24] = tested on: HCC1937; test: as above
# Procedure, shortened: as §3
# [25] = tested on: MDA-MB-468; test: as above
# Procedure, shortened: as §3
# [26] = tested on: SK-BR-3; test: as above
# Procedure, shortened: as §3
# [27] = tested on: MCF-10A; test: as above
# Procedure, shortened: as §3
# [28] = tested on: CAL-148; test: as above
# Procedure, shortened: as §3
# [29] = tested on: MDA-MB-231; test: as above
# Procedure, shortened: as §3
# [30] = tested on: MFM-223; test: as above
# Procedure, shortened: as §3
# [31] = tested on: MDA-MB-436; test: as above
# Procedure, shortened: as §3
# [32] = tested on: CAL-51; test: normalised viability (% of control), CellTiter-Blue; higher = more viable cells (100 = DMSO, 0 = benzethonium chloride kill control)
# Description: (§4)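 DSRT, CellTiter-Blue viability, 72 h incubation. Signal is normalised to DMSO and benzethonium chloride controls. Value is the normalised response at dose 1.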
# [33] = tested on: DU-4475; test: as above
# Description: as §4
# [34] = tested on: HDQ-P1; test: as above
# Description: as §4
# [35] = tested on: Hs578T; test: as above
# Description: as §4
# [36] = tested on: BT-549; test: as above
# Description: as §4
# [37] = tested on: HCC1599; test: as above
# Description: as §4
# [38] = tested on: HCC1143; test: as above
# Description: as §4
# [39] = tested on: CAL-120; test: as above
# Description: as §4
# [40] = tested on: MDA-MB-453; test: as above
# Description: as §4
# [41] = tested on: CAL-85-1; test: as above
# Description: as §4
# [42] = tested on: HCC1937; test: as above
# Description: as §4
# [43] = tested on: MDA-MB-468; test: as above
# Description: as §4
# [44] = tested on: SK-BR-3; test: as above
# Description: as §4
# [45] = tested on: CAL-148; test: as above
# Description: as §4
# [46] = tested on: MDA-MB-231; test: as above
# Description: as §4
# [47] = tested on: MFM-223; test: as above
# Description: as §4
# [48] = tested on: MDA-MB-436; test: as above
# Description: as §4
# [49] = tested on: CAL-51; test: normalised viability (% of control), CellTiter-Blue; higher = more viable cells (about 100 = DMSO control); remark: listed apart in the source
# Description: (§5)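 DSRT, CellTiter-Blue viability, 72 h incubation. Signal is normalised to DMSO and benzethonium chloride controls. Value is the normalised response at dose 8.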
# [50] = tested on: HDQ-P1; test: as above; remark: listed apart in the source
# Description: as §5
# [51] = tested on: MDA-MB-453; test: as above; remark: listed apart in the source
# Description: as §5
# [52] = tested on: CAL-85-1; test: as above; remark: listed apart in the source
# Description: as §5
# [53] = tested on: CAL-148; test: as above; remark: listed apart in the source
# Description: as §5
compound,measurement,setting,value
COc1ccc(S(=O)(=O)Nc2cccnc2Nc2ccc(O)cc2)cc1 [ABT-751] (300 nM),normalised viability,[1],94.3%
same,normalised viability,[2],80.7%
same,normalised viability,[3],55.8%
same,normalised viability,[4],39.5%
same,normalised viability,[5],58.7%
same,normalised viability,[6],98.6%
Cc1cc(Nc2nc(N[C@@H](C)c3ncc(F)cn3)ncc2Cl)[nH]n1 [AZD1480] (30 nM),normalised viability,[1],113%
same,normalised viability,[2],109%
same,normalised viability,[3],78.1%
same,normalised viability,[4],117%
same,normalised viability,[5],91.3%
same,normalised viability,[6],103%
CNC(=O)c1ccccc1Sc1ccc2c(/C=C/c3ccccn3)n[nH]c2c1 [Axitinib] (300 nM),normalised viability,[1],96.1%
same,normalised viability,[2],103%
same,normalised viability,[3],40.1%
same,normalised viability,[4],96.8%
same,normalised viability,[5],83.6%
same,normalised viability,[6],94%
CC(O)(CS(=O)(=O)c1ccc(F)cc1)C(=O)Nc1ccc(C#N)c(C(F)(F)F)c1 (stereo not drawn) [Bicalutamide] (300 nM),normalised viability,[1],108%
same,normalised viability,[2],93.6%
same,normalised viability,[3],55%
same,normalised viability,[4],110%
same,normalised viability,[5],95%
same,normalised viability,[6],107%
CCNC(=O)CCC/C=C\C[C@@H]1[C@@H](/C=C/[C@@H](O)CCc2ccccc2)[C@H](O)C[C@@H]1O [Bimatoprost] (165 nM),normalised viability,[1],116%
same,normalised viability,[2],97.6%
same,normalised viability,[3],81.4%
same,normalised viability,[4],102%
same,normalised viability,[5],96.4%
same,normalised viability,[6],94.6%
COc1cc(Nc2c(C#N)cnc3cc(OCCCN4CCN(C)CC4)c(OC)cc23)c(Cl)cc1Cl [Bosutinib] (300 nM),normalised viability,[1],117%
same,normalised viability,[2],99.7%
same,normalised viability,[3],68.5%
same,normalised viability,[4],88.2%
same,normalised viability,[5],108%
same,normalised viability,[6],82.2%
CCN(CC)CCCC(C)Nc1ccnc2cc(Cl)ccc12 (stereo not drawn) [Chloroquine] (29.7 nM),normalised viability,[1],88.5%
same,normalised viability,[2],116%
same,normalised viability,[3],123%
same,normalised viability,[4],98.8%
same,normalised viability,[5],92.7%
same,normalised viability,[6],89.9%
CCN(CC)CCCC(C)Nc1ccnc2cc(Cl)ccc12 (stereo not drawn) [Chloroquine] (990 nM),normalised viability,[7],89.5%
same,normalised viability,[8],115%
same,normalised viability,[9],126%
same,normalised viability,[10],98.4%
same,normalised viability,[11],91.3%
same,normalised viability,[12],84.8%
CN(Cc1cnc2nc(N)nc(N)c2n1)c1ccc(C(=O)N[C@@H](CCC(=O)O)C(=O)O)cc1 [Methotrexate] (10000 nM),normalised viability,[7],39.2%
same,normalised viability,[8],102%
same,normalised viability,[9],99.7%
same,normalised viability,[10],90%
same,normalised viability,[11],65.3%
same,normalised viability,[12],69.1%
COc1c2occc2cc2ccc(=O)oc12 [Methoxsalen] (10000 nM),normalised viability,[7],49.2%
same,normalised viability,[8],71.6%
same,normalised viability,[9],128%
same,normalised viability,[10],28.5%
same,normalised viability,[11],61%
same,normalised viability,[12],53.6%
C=CCN(/C=C1/C(=O)O[C@H](COC)[C@@]2(C)C1=C(O)C(=O)C1=C2[C@H](OC(C)=O)C[C@]2(C)C(=O)CC[C@@H]12)CC=C [PX-866] (10000 nM),normalised viability,[7],97.8%
same,normalised viability,[8],88%
same,normalised viability,[9],53.2%
same,normalised viability,[10],70.2%
same,normalised viability,[11],88.9%
same,normalised viability,[12],112%
CC[C@H](CO)Nc1nc(NCc2ccccc2)c2ncn(C(C)C)c2n1 [Roscovitine] (10000 nM),normalised viability,[7],85%
same,normalised viability,[8],96.6%
same,normalised viability,[9],75.6%
same,normalised viability,[10],63.4%
same,normalised viability,[11],61.9%
same,normalised viability,[12],80.8%
O=C(CCCCCCC(=O)Nc1ccccc1)NO [Vorinostat] (1 nM),normalised response,[13],80.8%
same,normalised response,[14],98.4%
same,normalised response,[15],104%
same,normalised response,[16],97.5%
same,normalised response,[17],108%
same,normalised response,[18],94.1%
same,normalised response,[19],91.1%
same,normalised response,[20],93.1%
same,normalised response,[21],95.9%
same,normalised response,[22],97.9%
same,normalised response,[23],104%
same,normalised response,[24],99%
same,normalised response,[25],96%
same,normalised response,[26],88%
same,normalised response,[27],92.1%
same,normalised response,[28],102%
same,normalised response,[29],94.8%
same,normalised response,[30],102%
same,normalised response,[31],98.3%
same,normalised viability,[32],103% and 96%
same,normalised viability,[33],100% and 106%
same,normalised viability,[34],84.8% and 99.5%
same,normalised viability,[35],108% and 97.3%
same,normalised viability,[36],94.4% and 117%
same,normalised viability,[37],97.8% and 94.4%
same,normalised viability,[38],94.7% and 100%
same,normalised viability,[39],83.4% and 95.8%
same,normalised viability,[40],106%
same,normalised viability,[41],91.5% and 104%
same,normalised viability,[42],102% and 89.7%
same,normalised viability,[43],109%
same,normalised viability,[44],89.7% and 91.5%
same,normalised viability,[45],89.8% and 101%
same,normalised viability,[46],89.6% and 94.1%
same,normalised viability,[47],90% and 100%
same,normalised viability,[48],101% and 100%
O=C(CCCCCCC(=O)Nc1ccccc1)NO [Vorinostat] (3000 nM),normalised viability,[49],101% and 94.8%
same,normalised viability,[50],68.1% and 62.5%
same,normalised viability,[51],12.2% and 9.84%
same,normalised viability,[52],59.5% and 66.1%
same,normalised viability,[53],49.7% and 59.7%
